Reference: patent US6780641B2, “Immortalized human microglia cell line” (University of British Columbia, priority 2000, dated 2004)
“Also recorded” adds a separate entry of the source.

Key:
HMO6.A1 cells [1] = assay: RT-PCR analysis of gene expression in agent stimulated HMO6.A1 cells; format: cell-based, human; conditions: for P2Y2 receptor expression / B7-2 mRNA expression: HMO6.A1, RT-PCR; for B7-2 mRNA expression: 24 hr incubation; for Stimulated HMO6 cell expressed active substance(s): RT-PCR, agent stimulated HMO6 cells
From the text: The information of Table E1 is provided merely as a convenience to the reader and utilizes conventional gene sequences.
Sense and antisense primers of each primer pair given by Table E1 were set at a different exon, respectively, to avoid DNA contamination. To assess the character of HMO6.A1 cells, the expression of cytokines (IL-1β, -2, -3, -4, -5, -6, -7, -8, -9, -10, -11, -12, -13, -15, and TNF-α), chemokines (macrophage inflammatory protein (MIP)-1α, MIP-1β, and monocyte chemoattractant protein (MCP)-1) was examined by RT-PCR. Total RNA was extracted using Trizol reagent (GIBCO-BRL, Gaithersburg, Md.). Complimentary DNA (cDNA) templates from each sample were prepared from 2 μg of total RNA primed with oligo dT primers (Pharmacia, Gaithersburg, Md.) using 400 units of MMLV reverse transcriptase (GIBCO-BRL) followed by 25 PCR amplification cycles (94° C. for 30 seconds, annealing at 60° C. for 60 seconds, and extension at 72° C. for 90 seconds). This cycle number allowed a linear cDNA dose-response. Glyceraldehyde-3-phosphate dehydrogenase (G3PDH) was used as a reaction standard [Ercolani et al., J. Biol. Chem. 263: 15335-15341 ([…])].
To confirm the purity of cell preparation, cDNA from microglia-enriched cultures were amplified for B7-2 (CD86, for microglia); GFAP (a cell type-specific marker for astrocytes); myelin basic protein (MBP, for oligodendrocytes); and neurofilament-M (NF-M, for neurons). For characterization of HMO6.A1 cells, mRNA expression of marker proteins specific for each cell type was also investigated. Gene expression of CD68, P2Y1 purinergic receptor (P2Y1R), P2Y2R, CXCR4 which are expressed in embryonic human microglia (HM) was also examined in HMO6.A1 cells. […] of each PCR product was analyzed by 1.5% agarose gel electrophoresis. Authentic bands were determined by selective enzyme digestion.
[…] LPS at 100 ng/ml was used in microglial cultures since LPS is a potent activator of microglia [Gebicke-Haeter et al., J. Neurosci. 9: 187-194 (1989); Suzumura et al., Brain Res. 545: 301-306 (1991)].

HMO6.A1 cells [2] = assay: Fura-2 Ca2+ fluorescence in HMO6.A1 cells; format: cell-based, human; conditions: ATP 100 μM; ionomycin 10 μM after ATP perfusion; n=7 cells
Method: The cultured HMO6.Al cells were loaded for 25 min with the Ca^2+ indicator fura-2-acetoxymetethylester (fura-2AM). The dye was applied with pleuronic acid (both at concentrations of 1 μM) to normal physiological solution (PSS) at room temperature (20-22° C.). Following a 5 min wash in dye-free solution, the coverslips were placed on the stage of a Zeiss Axiovert inverted microscope containing a ×40 quartz objective lens. Alternating excitation wavelengths (340/380 nm) of UV light were applied at intervals of 8 s and fluorescence signals were obtained at 510 nm of emission light (bandwidth of 4 nm) from 8-20 cells in the field of view. Signals were acquired from a digital camera (DVC-1310, DVC Co., Austin, Tex.) and were processed using an imaging system (Empix, Mississauga, ON) to determine ratios of the 340 nm and 380 nm intensities which have been used as quantitative measures of fluorescence levels in this work.
All studies were done at room temperature (20-22° C.) and values obtained from multiple cells are reported as mean ±SEM with statistical significance for p≦0.05 using the Student's t-test.
The purinergic agonist ATP (at 100 μM) was applied to HMO6.A1 cells using calcium sensitive fluorescence microscopy. The results from a representative experiment are presented by FIGS. 3A and 3B which show an ATP-induced increase in [Ca^2+]i from n=7 cells. […]

HMO6.A1 cells [3] = assay: ELISA of cytokines/chemokines released from HMO6.A1 cells; format: cell-based, human; conditions: for MIP-1α amount of release / levels of IL-8 in the supernatant: HMO6.A1, 48 hours; for levels of IL-8 in the supernatant: versus non-treated controls
Method: (§1) Production of TNF-α, IL-1β, IL-6, IL-8 or MIP-1α in normal human microglial cells or HMO6.A1 cells was determined in spent culture supernatants using ELISA kits specific for human TNF-α, IL-1β, IL-6, IL-8 or MIP-1α (R&D Systems, capable of detecting TNF-α at 4.4 pg/ml, IL-1β at 1 pg/ml, IL-6 at 0.70 pg/ml, IL-8 at 10 pg/ml and MIP-1α at 10 pg/ml). At the end of each experiment, culture supernatants were collected, centrifuged, and stored at −70° C.
(§2) FIGS. 6A-6E are graphs presenting ELISA analyses of cytokines and chemokines released from normal human microglia and HMO6 immortalized human microglia cell line. Cells were plated in 6-well plates, stimulated for 48 hours with or without 20 ug/ml β-amyloid or 10 ng/ml LPS, and then cytokine/chemokine production in spent media was measured. Values represent mean±SEM from 3 experiments.

[4] = tested on: normal human microglial cells; assay: ELISA of cytokines/chemokines released from normal human microglia (HM); format: cell-based; conditions: for IL-6 levels in the culture supernatant: cell type (HM or HMO6.A1) not given; for levels of IL-8 in the supernatant: versus non-treated controls
Method: as §1, §2

[5] = tested on: embryonic human microglia; assay: GM-CSF stimulated proliferation of embryonic human microglia; format: cell-based; conditions: GM-CSF 8 μg/ml for 9-12 days
Method: It is also desirable that, for the last part of this time, microglia are exposed to granulocyte macrophage colony stimulating factor (GM-CSF) at final concentration of 8 ug/ml for 9-12 days with a medium change every 3 days. GM-CSF treatment stimulated proliferation of microglia results in a 3-4 fold increase in microglial population.
As illustrated by FIG. 1, an amphotropic replication-incompetent retroviral vector encoding v-myc oncogene (transcribed from mouse leukemia virus LTR plus neomycin-resistant gene transcribed from a SV40 early promotor) was used to infect human microglia inducing propagation of immortalized human microglial cell lines. This amphotropic vector, PASK 1.2, was generated using the ecotropic retroviral vector encoding v-myc (obtained from the American Type Culture Collection, Rockville, Md.) to infect PA318 amphotropic packaging cell line. Microglia were exposed to granulocyte macrophage colony stimulating factor (GM-CSF) at final concentration of 8 μg/ml for 9-12 days with medium change every 3 days. GM-CSF treatment stimulated proliferation of microglia resulting in 3-4 folds increase in population. Microglia treated with GM-CSF for 9-12 days were subjected to retrovirally mediated transduction of v-myc by PASK 1.2 construct and subsequent cloning.

[6] = tested on: embryonic human microglia (HM); assay: RT-PCR analysis of gene expression in embryonic human microglia (HM) after Aβ25-35/LPS; format: cell-based; conditions: 6 hr
[7] = HMO6, treatment time not stated

TNF-α was tested, and the “Expression of MIP-1α” value (HMO6.A1 cells [1]; [7]) was “newly induced”, the “Expression of TNF-α” value (HMO6.A1 cells [1]; [7]) was “newly induced” and the MIP-1α expression (HMO6.A1 cells [1]; HMO6.A1, 24 hr treatment) was “detected; also recorded: induced”. For the same molecule, the P2Y2 receptor expression (HMO6.A1 cells [1]) was “induced; also recorded: expressed”, the “B7-2 mRNA expression” value (HMO6.A1 cells [1]) was “induced; also recorded: expressed” and the TNF-α gene expression (HMO6.A1 cells [1]; HMO6.A1, treatment for 4 hr) was “recognized; also recorded: induced”. For the same molecule, the “Stimulated HMO6 cell expressed active substance(s)” value (shortened to “Stimulated HMO6 cell”) (HMO6.A1 cells [1]; MIP-1α expression) was “MIP-1α” and the “Stimulated HMO6 cell” value (HMO6.A1 cells [1]; TNF-α expression) was “TNF-α”.

With C[C@H](CCC(=O)O)C[C@H](C)C[C@H](C)C(=O)/C=C(\O)[C@H](C)C[C@H](C)C/C=C/[C@@H](C)[C@@H](O)[C@@H](C)[C@@H](O)C[C@@H]1CC[C@@](C)([C@H]2CC[C@@](C)([C@@H](C)O)O2)O1 [ionomycin] the “[Ca2+]i response” value (HMO6.A1 cells [2]) was “considerably larger than the ATP-induced response”.

lipopolysaccharide [LPS] was tested, and the CXCR4 expression (HMO6.A1 cells [1]; HMO6.A1, 6 hr) was “increased”, the TNF-α expression (HMO6.A1 cells [1]; HMO6.A1, 6 hr incubation) was “not induced” and the P2Y2 receptor expression (HMO6.A1 cells [1]) was “expressed”. The “B7-2 mRNA expression” value (HMO6.A1 cells [1]) was “not”, the TNF-α expression (HMO6.A1 cells [1]; HMO6.A1, after 24 hr) was “induced” and the “MIP-1α amount of release” value (HMO6.A1 cells [3]) was “very low”. The “levels of IL-8 in the supernatant” value (HMO6.A1 cells [3]) was “greater”, the “IL-6 levels in the culture supernatant” value ([4]; 48 hours stimulation) was “increased” and the “release of IL-1β into culture medium” value ([4]; HM, 48 hours stimulation) was “demonstrated”. The “levels of IL-8 in the supernatant” value ([4]; HM, 48 hours) was “greater”.

“GM-CSF: granulocyte-macrophage colony-stimulating factor (GIBCO-BRL)” was tested, and the P2Y2 receptor expression (HMO6.A1 cells [1]) was “expressed”, the “B7-2 mRNA expression” value (HMO6.A1 cells [1]) was “not” and the “increase in microglial population” value [5] was 3-4 fold.

For Nc1ncnc2c1ncn2[C@@H]1O[C@H](COP(=O)(O)OP(=O)(O)OP(=O)(O)O)[C@@H](O)[C@H]1O [ATP], the “[Ca2+]i response” value (HMO6.A1 cells [2]) was “increase; also recorded: rapid and transient”.

With “NH2-GSNKGAIIGLM-COOH (H-GSNKGAIIGLM-OH) [Aβ25-35]” the CXCR4 expression (HMO6.A1 cells [1]; HMO6.A1, 6 hr) was “increased”, the IL-1β expression (HMO6.A1 cells [1]; HMO6.A1, 6 hr) was “no change” and the IL-6 expression (HMO6.A1 cells [1]; HMO6.A1, 6 hr) was “no change”. For the same molecule, the “IL-8 mRNA expression” value (HMO6.A1 cells [1]; HMO6.A1, 6 hr) was “elevated”, the IL-10 expression (HMO6.A1 cells [1]; HMO6.A1, 6 hr) was “not detected” and the IL-12 expression (HMO6.A1 cells [1]; HMO6.A1, 6 hr) was “elevated”. The “MCP mRNA expression” value (HMO6.A1 cells [1]; HMO6.A1, 6 hr) was “elevated”, the “MIP-1α mRNA expression” value (HMO6.A1 cells [1]; HMO6.A1, 6 hr) was “not expressed” and the MIP-1β expression (HMO6.A1 cells [1]; HMO6.A1, 6 hr) was “No change”. The TNF-α expression (HMO6.A1 cells [1]; HMO6.A1, 6 hr incubation) was “not induced”, the TNF-α expression (HMO6.A1 cells [1]; HMO6.A1, after 24 hr) was “induced” and the TNF-α expression (HMO6.A1 cells [1]; HMO6.A1, after 24 hr, listed as Aβ) was “detected; also recorded: induced”. The “Stimulated HMO6 cell” value (HMO6.A1 cells [1]; Elevated IL-12 expression) was “Elevated IL-12”, the “Stimulated HMO6 cell” value (HMO6.A1 cells [1]; TNF-α expression) was “TNF-α” and the IL-1β expression [6] was “slightly increased”. For the same molecule, the IL-4 expression [6] was “not recognized”, the “IL-8 mRNA” value [6] was “up-regulated” and the IL-10 expression [6] was “increased”. For the same molecule, the IL-12 expression [6] was “elevated”, the IL-13 expression [6] was “not recognized” and the “MCP mRNA” value [6] was “up-regulated”. For the same molecule, the “MIP-1α mRNA” value [6] was “up-regulated”, the “MIP-1β mRNA” value [6] was “up-regulated” and the TNF-α expression [6] was “markedly elevated”. The “MIP-1α amount of release” value (HMO6.A1 cells [3]) was “very low”, the “TNF-α production (ELISA)” value (HMO6.A1 cells [3]; HMO6.A1, 48 hours stimulation, spent media) was “marked increase” and the “levels of IL-8 in the supernatant” value (HMO6.A1 cells [3]) was “greater”. The “IL-6 levels in the culture supernatant” value ([4]; 48 hours stimulation) was “not increased”, the MIP-1α levels ([4]; HM, 48 hours) was “elevated” and the “release of IL-1β into culture medium” value ([4]; HM, 48 hours stimulation) was “demonstrated”. The “TNF-α production (ELISA)” value ([4]; HM, 48 hours stimulation, spent media) was “marked increase” and the “levels of IL-8 in the supernatant” value ([4]; HM, 48 hours) was “greater”.

“IL-1β: Recombinant human IL-1β (10 ng/ml, R&D Systems)” was tested, and the P2Y2 receptor expression (HMO6.A1 cells [1]) was “expressed”, the “B7-2 mRNA expression” value (HMO6.A1 cells [1]) was “not” and the “Stimulated HMO6 cell” value (HMO6.A1 cells [1]) was “None”.

B1: IFN-γ: recombinant human IFN-γ (500 IU/ml, LG Chem) (protein, UniProt P01579 24-161, looked up)
Interferon gamma: QDPYVKEAENLKKYFNAGHSDVADNGTLFLGILKNWKEESDRKIMQSQIVSFYFKLFKNFKDDQSIQKSVETIKEDMNVKFFNSNKKKRDDFEKLTNYSVTDLNVQRKAIHELIQVMAELSPAAKTGKRKRSQMLFRG
With B1 the P2Y2 receptor expression (HMO6.A1 cells [1]) was “expressed” and the “B7-2 mRNA expression” value (HMO6.A1 cells [1]) was “not”.
